From patent US12077608B2, “Stapled H2 pyrin peptides” (H. LEE MOFFITT CANCER CENTER AND RESEARCH INSTITUTE, INC., priority 2018, dated 2024)
Bridge positions count the residues as written; N and C are the ends. Square brackets hold non-standard residues; d marks the D form. Ends that are not written are not given here. Peptide text beside a SMILES is read from it. * marks the point of attachment. FITC = O=C1OC2(c3ccc(O)cc3Oc3cc(O)ccc32)c2ccc(NC(=S)*)cc21; S5 = C=CCCC[C@](C)(N)C(=O)O; Nle = CCCC[C@H](N)C(=O)O; βAla = NCCC(=O)O

What was measured:
GST-ASC^PYD = target: T1, GST-ASC^PYD (Homo sapiens, UniProt Q9ULZ3); assay: KD (μM) | GST-ASC^PYD
T1 construct: human ASC (residues 1-106) was cloned into a pGEX-4T1 vector; made in house; host or cells: E. coli BL21 DE3
From the text: (§1) Table printed on a drawing sheet, FIG. 10
Head of the field: KD (μM) | GST-ASC^PYD
(§2) The patent's description of the figure: FIG. 10 is a table showing the results from a fluorescence anisotropy binding assay to determine the accurate binding affinities of stapled peptides fPOP1-H2 (SEQ ID NO: 2), fSAH-POP1-1 (SEQ ID NO: 1), fSAH-POP1-3 (SEQ ID NO: 3), fSAH-POP1-4 (SEQ ID NO: 4), fSAH-POP1-5 (SEQ ID NO: 5), fSAH-POP1-6 (SEQ ID NO: 6), fSAH-POP1-7 (SEQ ID NO: 7), fSAH-POP1-8 (SEQ ID NO: 8), fSAH-POP1-9 (SEQ ID NO: 9), fSAH-POP1-10 (SEQ ID NO: 10), fSAH-POP1-11 (SEQ ID NO: 11), fSAH-POP1-12 (SEQ ID NO: 12), fSAH-POP1-13 (SEQ ID NO: 13), fSAH-POP1-14 (SEQ ID NO: 14), fSAH-POP1-15 (SEQ ID NO: 15), fSAH-POP1-16 (SEQ ID NO: 16), fSAH-POP1-17 (SEQ ID NO: 17), fSAH-POP1-18 (SEQ ID NO: 18), fSAH-POP1-19 (SEQ ID NO: 19), fSAH-POP1-20 (SEQ ID NO: 20), fSAH-POP1-21 (SEQ ID NO: 21), fSAH-POP1-22 (SEQ ID NO: 22), fSAH-POP1-23 (SEQ ID NO: 23), fSAH-POP1-24 (SEQ ID NO: 24), fSAH-POP1-25 (SEQ ID NO: 25), fSAH-POP1-26 (SEQ ID NO: 26), fSAH-POP1-27 (SEQ ID NO: 27), fSAH-POP1-28 (SEQ ID NO: 28), fSAH-POP1-29 (SEQ ID NO: 29), fSAH-POP1-30 (SEQ ID NO: 30), fSAH-POP1-31 (SEQ ID NO: 31).
(§3) First copying reader's note: Second part of the same figure; in the structures S5, NL (N with lowered L) and NH2 carry lowered signs, a drawn bracket joins the two S5 residues (staple), and the SEQ ID NO column is printed outside the table frame.
Where the first naming reader finds the target: head: GST-ASC^PYD

GST-NLRP3^PYD = target: T2, GST-NLRP3^PYD (Homo sapiens, UniProt Q96P20); assay: KD (μM) | GST-NLRP3^PYD
T2 construct: human NLRP3 (residues 3-110) was cloned into a pET-21b vector; made in house; host or cells: E. coli BL21 DE3
From the text: as §1
Head of the field: KD (μM) | GST-NLRP3^PYD
as §2, §3
Where the first naming reader finds the target: head: GST-NLRP3^PYD

[1] = test system: ASC speck formation in THP-1 ASC-GFP cells; assay: ASC speck assay, live-cell imaging; assay type: cell-based, Human; conditions: for ASC speck formation remaining with inhibitor: 5 μM peptide, nigericin at 5 μM gives 38%
Protocol: ASC speck is a hallmark of inflammasome formation (Dick et al., 2016; Hoss et al., 2017) and observable by microscopy (Doyle et al., 2012; Stutz et al., 2013). THP-1 ASC-GFP cells stably expressing the ASC-GFP fusion protein (InvivoGen Catalog #: thp-ascgfp) were used to visualize the inhibitory effect of SAH-POP1-4 on ASC specks formation (Fernandes-Alnemri et al., 2007).
Experimental Procedure for ASC Speck Assay. THP1 ASC-GFP cells were seeded at 2×10^6/ml (0.7-1 mL) in RPMI1640 medium with 10% FCS in FluoroDish (FD35-100) and cultivated in the presence of 50 nM phorbol-12-myristate-13-acetate (PMA) for 24 h, then media was replaced by fresh media and incubated for 24 h. Then cells were stimulated with 200 ng/ml LPS from E. coli (sigma) for 3 h. The media was removed and replaced with serum-free medium (OptiMEM) containing DMSO (1:1,000), 20 μM inhibitors for 30 min. […] Control samples were incubated with media lacking LPS or nigericin. Then, ASC specks were tested by confocal microscopy SP8 (Leica Microsystems).
ASC speck is the hallmark of inflammasome formation and observable by microscopy. THP-1 ASC-GFP cells stably expressing the ASC-GFP fusion protein (InvivoGen Catalog #: thp-ascgfp) were used to visualize the inhibitory effect of SAH-POP1-17 on ASC specks formation (Fernandes-Alnemri et al., 2007). […] SAH-POP1-17 at 5 μM inhibited ASC speck formation to 4%, and SAH-POP1-18 at 5 μM inhibited ASC speck formation to 8%.

[2] = Circular dichroism (CD) secondary structure of the peptides; assay type: physicochemical; conditions: aqueous solution; 100 μM peptide in 10 mM potassium phosphate, 100 mM potassium fluoride buffer (pH=7.5)
Protocol: Circular dichroism (CD) was used to determine the secondary structure of the peptides. […] Hydrocarbon stapling promoted α-helix contents with SAH-POP1-4 and SAH-POP1-8 having the highest in aqueous solution.
CD spectra were recorded on an AVIV Model 215 Circular Dichroism Spectrometer. Each spectrum was collected with the wavelength between 190 to 260 nm, 0.5 nm increments, and 0.5 s averaging time using a 1-mm path length cell. The peptide concentration was 100 μM in 10 mM potassium phosphate and 100 mM potassium fluoride buffer (pH=7.5). The studied peptides were completely dissolved in this buffer. CD spectra were initially plotted as wavelength versus millidgree, the default output of the instrument. Once the precise peptide concentration was confirmed, the mean residue ellipticity [Θ] was calculated for the y-axis.

T2 sequence (Q96P20 3-110): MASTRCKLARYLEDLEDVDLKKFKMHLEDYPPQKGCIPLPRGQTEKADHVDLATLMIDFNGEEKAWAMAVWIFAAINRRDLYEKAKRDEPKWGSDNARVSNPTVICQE
T1 sequence (Q9ULZ3 1-106): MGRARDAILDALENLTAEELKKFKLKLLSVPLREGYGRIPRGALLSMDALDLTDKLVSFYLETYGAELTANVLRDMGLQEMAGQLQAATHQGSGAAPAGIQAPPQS

| Molecule | Kd (GST-ASC^PYD) [µM] | Kd (GST-NLRP3^PYD) [µM] | other results |
| --- | --- | --- | --- |
| CCCC[C@H](NC(=O)[C@H](Cc1c[nH]c2ccccc12)NC(=O)[C@H](CCC(N)=O)NC(=O)[C@]1(C)CCCC=CCCC[C@](C)(NC(=O)[C@H](CCC(N)=O)NC(=O)CCNC(=S)Nc2ccc3c(c2)C(=O)OC32c3ccc(O)cc3Oc3cc(O)ccc32)C(=O)N[C@@H](CO)C(=O)N[C@@H](CCCNC(=N)N)C(=O)N[C@@H](CCCNC(=N)N)C(=O)N1)C(=O)N[C@@H](CCC(N)=O)C(=O)N[C@@H](Cc1c[nH]c2ccccc12)C(=O)N[C@H](C(=O)N[C@@H](C)C(N)=O)[C@@H](C)O [fSAH-POP1-26] ({FITC-βAla}-Q[S5]SRR[S5]QW[Nle]QWTA-NH2; staple 2-6) | 5 ± 0.79 | 11 ± 1.1 | – |
| CO[C@@H]1C[C@@H](C[C@H]2CC[C@H](C)[C@H]([C@@H](C)C(=O)O)O2)O[C@]2(O[C@](C)([C@H]3CC[C@@](C)([C@@H]4O[C@@H]([C@H]5O[C@@](O)(CO)[C@H](C)C[C@@H]5C)C[C@@H]4C)O3)C[C@H]2C)[C@@H]1C [nigericin, reference compound] | – | – | activation of ASC speck formation ([1]; nigericin at 2 μM): activated ASC speck formation; ASC speck formation activated ([1]; nigericin at 5 μM, no inhibitor): 38% |
| POP1-H2: Reference peptide, unstapled, amino acid sequence EELKKFKMKLGTV [reference compound] | – | – | α-helical structure / α-helix contents by circular dichroism [2]: does not exhibit α-helical structure |
| SAH-POP1-17: Stapled peptide synthesized by FIG. 11, SEQ ID NO: 44 (QXLRRXQWXLWTA; hydrocarbon staple; (2)..(2) X= S5=(S)-2-(4-pentenyl)alanineS5, the two Xs are also directly connected by a double bond; (6)..(6) X= S5=(S)-2-(4-pentenyl)alanineS5, the two Xs are also directly connected by a double bond; (9)..(9) X= NL = norleucine) | – | – | ASC speck formation remaining with inhibitor [1]: 4% |
| SAH-POP1-18: Stapled peptide synthesized by FIG. 11, SEQ ID NO: 45 (Q[S5]LRR[S5]QWFLWTA-NH2; staple 2-6; N-terminus assumed; SMILES CC(C)C[C@H](NC(=O)[C@H](Cc1ccccc1)NC(=O)[C@H](Cc1c[nH]c2ccccc12)NC(=O)[C@H](CCC(N)=O)NC(=O)[C@]1(C)CCCC=CCCC[C@](C)(NC(=O)[C@@H](N)CCC(N)=O)C(=O)N[C@@H](CC(C)C)C(=O)N[C@@H](CCCNC(=N)N)C(=O)N[C@@H](CCCNC(=N)N)C(=O)N1)C(=O)N[C@@H](Cc1c[nH]c2ccccc12)C(=O)N[C@H](C(=O)N[C@@H](C)C(N)=O)[C@@H](C)O) | – | – | ASC speck formation remaining with inhibitor [1]: 8% |

Continued, in another order:

| Kd (GST-ASC^PYD) [µM] | Kd (GST-NLRP3^PYD) [µM] | Molecule | other results |
| --- | --- | --- | --- |
| 3.9 ± 0.68 | 7.9 ± 1.1 | CCCC[C@H](NC(=O)[C@H](Cc1c[nH]c2ccccc12)NC(=O)[C@H](CCCCN)NC(=O)[C@]1(C)CCCC=CCCC[C@](C)(NC(=O)[C@H](CCC(N)=O)NC(=O)CCNC(=S)Nc2ccc3c(c2)C(=O)OC32c3ccc(O)cc3Oc3cc(O)ccc32)C(=O)N[C@@H](CO)C(=O)N[C@@H](CCCNC(=N)N)C(=O)N[C@@H](CCCNC(=N)N)C(=O)N1)C(=O)N[C@@H](CCC(N)=O)C(=O)N[C@@H](Cc1c[nH]c2ccccc12)C(=O)N[C@H](C(=O)N[C@@H](C)C(N)=O)[C@@H](C)O [fSAH-POP1-27] ({FITC-βAla}-Q[S5]SRR[S5]KW[Nle]QWTA-NH2; staple 2-6) | – |
| 7.2 ± 1.1 | 7.7 ± 1.5 | CCCC[C@H](NC(=O)[C@H](Cc1c[nH]c2ccccc12)NC(=O)[C@H](CCC(N)=O)NC(=O)[C@]1(C)CCCC=CCCC[C@](C)(NC(=O)[C@H](CCC(N)=O)NC(=O)CCNC(=S)Nc2ccc3c(c2)C(=O)OC32c3ccc(O)cc3Oc3cc(O)ccc32)C(=O)N[C@@H](CC(C)C)C(=O)N[C@@H](CCCNC(=N)N)C(=O)N[C@@H](CCCNC(=N)N)C(=O)N1)C(=O)N[C@@H](CC(C)C)C(=O)NCC(=O)N[C@H](C(=O)N[C@@H](C)C(N)=O)[C@@H](C)O [fSAH-POP1-28] ({FITC-βAla}-Q[S5]LRR[S5]QW[Nle]LGTA-NH2; staple 2-6) | – |
| 5.5 ± 0.69 | 6 ± 0.92 | CCCC[C@H](NC(=O)[C@H](Cc1c[nH]c2ccccc12)NC(=O)[C@H](CCC(N)=O)NC(=O)[C@]1(C)CCCC=CCCC[C@](C)(NC(=O)[C@H](CCC(N)=O)NC(=O)CCNC(=S)Nc2ccc3c(c2)C(=O)OC32c3ccc(O)cc3Oc3cc(O)ccc32)C(=O)N[C@@H](CC(C)C)C(=O)N[C@@H](CCCNC(=N)N)C(=O)N[C@@H](CCCNC(=N)N)C(=O)N1)C(=O)N[C@@H](CC(C)C)C(=O)N[C@@H](CC(=O)O)C(=O)N[C@H](C(=O)N[C@@H](C)C(N)=O)[C@@H](C)O [fSAH-POP1-29] ({FITC-βAla}-Q[S5]LRR[S5]QW[Nle]LDTA-NH2; staple 2-6) | – |
| 7.5 ± 1.1 | 6.7 ± 1.2 | CCCC[C@H](NC(=O)[C@H](Cc1c[nH]c2ccccc12)NC(=O)[C@H](CCC(N)=O)NC(=O)[C@]1(C)CCCC=CCCC[C@](C)(NC(=O)[C@H](CCC(N)=O)NC(=O)CCNC(=S)Nc2ccc3c(c2)C(=O)OC32c3ccc(O)cc3Oc3cc(O)ccc32)C(=O)N[C@@H](CC(C)C)C(=O)N[C@@H](CCCNC(=N)N)C(=O)N[C@@H](CCCNC(=N)N)C(=O)N1)C(=O)N[C@@H](CC(C)C)C(=O)N[C@@H](CC(N)=O)C(=O)N[C@H](C(=O)N[C@@H](C)C(N)=O)[C@@H](C)O [fSAH-POP1-30] ({FITC-βAla}-Q[S5]LRR[S5]QW[Nle]LNTA-NH2; staple 2-6) | – |
| 7.8 ± 1.1 | 4.7 ± 0.54 | CCCC[C@H](NC(=O)[C@H](Cc1c[nH]c2ccccc12)NC(=O)[C@H](CCC(N)=O)NC(=O)[C@]1(C)CCCC=CCCC[C@](C)(NC(=O)[C@H](CCC(N)=O)NC(=O)CCNC(=S)Nc2ccc3c(c2)C(=O)OC32c3ccc(O)cc3Oc3cc(O)ccc32)C(=O)N[C@@H](CC(C)C)C(=O)N[C@@H](CCCNC(=N)N)C(=O)N[C@@H](CCCNC(=N)N)C(=O)N1)C(=O)N[C@@H](CC(C)C)C(=O)N[C@@H](CO)C(=O)N[C@H](C(=O)N[C@@H](C)C(N)=O)[C@@H](C)O [fSAH-POP1-31] ({FITC-βAla}-Q[S5]LRR[S5]QW[Nle]LSTA-NH2; staple 2-6) | – |
